In patent US7572765B2, “Conformationally constrained parathyroid hormone (PTH) analogs” (The General Hospital Corporation, priority 2001, dated 2009):
Values joined by “and” are separate entries in the source; they are usually repeats but may differ in a detail not shown here. Equal entries are not always repeated. “Also recorded” adds a separate entry of the source. Where two headings read alike, the source gives them in different places. Square brackets hold non-standard residues; d marks the D form. Peptide text beside a SMILES is read from it. hArg = N=C(N)NCCCC[C@H](N)C(=O)O; Aib = CC(C)(N)C(=O)O

Tests used:
Type in all cases: cell-based
[1] = system: embryonic mouse metatarsals; experiment: Inhibition of chondrocyte differentiation in embryonic mouse metatarsals (explant assay); conditions: for effect on mineralization / chondrocyte differentiation: E15.5 mouse metatarsals, 48 h treatment, PTH(1-34) 0.1 μM, [Aib^1,3,M]PTH(1-14) 1 μM, native PTH(1-14) 2 μM; for expression of the collagen X gene (mRNA in situ hybridization): explanted metatarsals, data not shown
Experimental: Inhibition of Chondrocyte Differentiation in Embryonic Mouse Metatarsals. Metatarsals from embryonic day (E) 15.5 mouse embryos were excised and cultured in a 37° C. humidified incubator (5% CO2) in serum -free αXMEM media in 24 well plates. Sixteen hours later, a PTH analog or vehicle was added, and the samples were incubated for an additional 48 h in 37° C. with peptide or vehicle added again at the 24 h time point. At the end of the 64 h incubation period, the samples were fixed with 10% formalin/phosphate-buffered saline, then directly visualized on a dissecting microscope using white light. Sections were processed for in-situ hybridization analysis using ^35S-labeled riboprobes specific for collagen type X mRNA, a developmental marker gene expressed only in hypertrophic chrondrocytes of the growth plate.
Whether or not [Aib^1,3,M]PTH(1-14) activity could be detected in a more intact bone system was studied in an explant assay. An explant assay utilized cartilaginous metatarsal rudiments isolated from E15.5mouse embryos and subsequently cultured in multi-well plates containing serum-free media. A PTH peptide analog or vehicle control, was added to the culture 16 h after explantion, then again at 24 h. The incubation was terminated 24 h later for a total of 48 h of treatment over a 64 h period. In the absence of PTH, chondrocyte differentation occurred, such that by the end of the experiment, dense mineralization was apparent at the bone's mid-section (FIG. 5A). […] These inhibitory effects were consistent with the known capacity of PTHRP to retard chondrocyte differentiation in the growth plate cartilage of developing long bones (Pellegrini, M., et al., Biochemistry 37:12737-12743 (1998)).

[2] = biological target: T1, PTH-1 receptor endogenously expressed in SaOS-2 cells (Homo sapiens, UniProt Q03431); experiment: cAMP stimulation in SaOS-2 cells; conditions: for EMAX(obs.): basal 6.4 ± 0.8; for EC50: N.R. = no cAMP response detected
T1 construct: endogenously expressed relatively low levels of the PTH-1 receptor; endogenous in cells; host or cells: SaOS-2 (SaOS-2-B10) human osteosarcoma cells
T1 sequence (Q03431 27-593): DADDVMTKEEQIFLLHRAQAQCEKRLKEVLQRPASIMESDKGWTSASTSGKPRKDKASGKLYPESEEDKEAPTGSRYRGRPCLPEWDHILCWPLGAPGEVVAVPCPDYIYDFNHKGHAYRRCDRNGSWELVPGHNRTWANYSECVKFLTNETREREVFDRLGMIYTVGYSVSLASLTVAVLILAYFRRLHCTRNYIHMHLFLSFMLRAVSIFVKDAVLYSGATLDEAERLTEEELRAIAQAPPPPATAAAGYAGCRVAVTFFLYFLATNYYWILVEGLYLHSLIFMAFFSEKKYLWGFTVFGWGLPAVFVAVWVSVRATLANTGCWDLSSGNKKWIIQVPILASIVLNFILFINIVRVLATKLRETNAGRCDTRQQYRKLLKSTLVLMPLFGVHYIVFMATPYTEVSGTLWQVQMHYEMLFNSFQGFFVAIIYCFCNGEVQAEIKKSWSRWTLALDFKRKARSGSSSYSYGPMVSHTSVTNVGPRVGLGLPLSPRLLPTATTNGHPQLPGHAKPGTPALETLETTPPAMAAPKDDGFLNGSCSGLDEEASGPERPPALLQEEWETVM
Experimental: Cell Culture. The cell line HKRK-B28 (Takasu, H., et al., J. Bone Miner. Res. 14:11-20 (1999)) was derived from the porcine kidney cell line, LLC-PK1 by stable transfection with plasmid DNA encoding the human P1R and expresses ˜280,000 receptors per cell. These cells, as well as COS-7 cells and SaOS-2-B10 cells, were cultured at […] in T-75 flasks ([…]) in Dulbecco's modified Eagle's medium (DMEM) supplemented with fetal bovine serum (10%), penicillin G (20 units/ml), streptomycin sulfate (20 μg/ml) and amphotericin B (0.05 μg/ml) in a humidified atmosphere containing 5% CO2. Stock solutions of EGTA/trypsin and antibiotics were from GIBCO; fetal bovine serum was from Hyclone Laboratories (Logan, Utah). COS-7 cells sub-cultured in 24-well plates were transfected with plasmid DNA (200 ng per well) encoding the wild-type human P1R or truncated human P1R deleted for residues (24-181) (Shimizu, M., et al., J. Biol. Chem. 275:21836-21843 (2000)) that was purified by cesium chloride/ethidium bromide density gradient centrifugation, and FuGENE 6 transfection reagent (Roche Indianapolis Ind.) according to the manufacturer's recommended procedure. All cells, in 24-well plates, were treated with fresh media and shifted to 33° C. for 12 to 24 h prior to assay.
cAMP Stimulation. Stimulation of cells with peptide analogs was performed in 24-well plates. Cells were rinsed with 0.5 mL of binding buffer (50 mM Tris-HCI, […], 5 mM KCl, 2 mM CaCl2, 5% heat-inactivated horse serum, 0.5% fetal bovine serum, adjusted to pH 7.5 with HCl) and treated with 200 μL of cAMP assay buffer (Delbecco's modified Eagle's medium containing 2 mM 3-isobutyl-1-methylxanthine, 1 mg/mL bovine serum albumin, 35 mM Hepes-NaOH, pH 7.4) and 100 μL of binding buffer containing varying amounts of peptide analog (final volume=300 μL). The medium was removed after incubation for 30 to 60 minutes at room temperature, and the cells were frozen on dry ice, lysed with 0.5 mL 50 mM HCl, and refrozen ([…]). The cAMP content of the diluted lysate was determined by radioimmunoassay. The EC50 response values were calculated using nonlinear regression (see below).
Data Calculation. Calculations were performed using Microsoft® Excel. Nonlinear regression analyses of binding and cAMP dose-response data were performed using the four-parameter equation: yp=Min+[(Max−Min)/(1+(IC50/x)^slope)]. The Excel Solver function was utilized for parameter optimization, as described previously (Carter, P. H., et al., Endocrinology 140: 4972-4981 (1999); Bowen, W. P., and Jerman, J. C., Trends in Pharmacol. Sci. 16: 413-417 (1995)). Differences between paired data sets were statistically evaluated using a one-tailed Student's t-test, assuming unequal variances for the two sets.
The number of PTH-1 receptors expressed on the surface of the PTH target cells in bone or kidney is uncertain, but it is likely to be considerably lower than that found in HKRK-B28 cells. Therefore, several of the Aib-mounted PTH analogs were evaluated using SaOS-2 cells.

human P1R = biological target: T2, human P1R (Homo sapiens, UniProt Q03431); experiment: cAMP stimulation in HKRK-B28 cells; conditions: for cAMP EMax(obs.): basal 4.0 ± 0.1 pmole/well not subtracted
T2 construct: expressed in transfected cells; host or cells: HKRK-B28 (porcine kidney LLC-PK1, stably transfected)
T2 sequence (Q03431 27-593): T1 sequence (Q03431 27-593)

| Compound | effect on mineralization / chondrocyte differentiation [1] | expression of the collagen X gene (mRNA in situ hybridization) [1] | EMAX(obs.) ([2]; cAMP) [pmole/well] | EC50 (human P1R) | maximum (Emax) increase in intracellular cAMP (human P1R) [fold] | cAMP EMax(obs.) (human P1R) [pmole/well] | other results |
| --- | --- | --- | --- | --- | --- | --- | --- |
| CCCC[C@H](NC(=O)[C@H](CCCNC(=N)N)NC(=O)[C@H](CCC(=O)O)NC(=O)[C@@H](NC(=O)[C@H](CO)NC(=O)[C@H](C)NC(=O)[C@H](CC(C)C)NC(=O)[C@H](Cc1c[nH]cn1)NC(=O)[C@H](CCCCN)NC(=O)CNC(=O)[C@H](CC(C)C)NC(=O)[C@H](CC(N)=O)NC(=O)[C@H](Cc1c[nH]cn1)NC(=O)[C@H](CCCC)NC(=O)[C@H](CC(C)C)NC(=O)[C@H](CCC(N)=O)NC(=O)[C@@H](NC(=O)[C@H](CCC(=O)O)NC(=O)[C@H](CO)NC(=O)[C@@H](NC(=O)[C@H](C)N)C(C)C)[C@@H](C)CC)C(C)C)C(=O)N[C@@H](CCC(N)=O)C(=O)N[C@@H](Cc1c[nH]c2ccccc12)C(=O)N[C@@H](CC(C)C)C(=O)N[C@@H](CCCNC(=N)N)C(=O)N[C@@H](CCCCN)C(=O)N[C@@H](CCCCN)C(=O)N[C@@H](CC(C)C)C(=O)N[C@@H](CCC(N)=O)C(=O)N[C@@H](CC(=O)O)C(=O)N[C@H](C(=O)N[C@@H](Cc1c[nH]cn1)C(=O)N[C@@H](CC(N)=O)C(=O)N[C@@H](Cc1ccc(O)cc1)C(N)=O)C(C)C [PTH(1-34), [Nle^8,21, Tyr^34]PTH(1-34)amide, reference compound] | no mineralization was observed; also recorded: inhibited mineralization | inhibited expression of the collagen X gene | 350 ± 30 | 2.5 ± 0.4 nM | ~70 | 280 ± 11 | – |
| CC[C@H](C)[C@H](NC(=O)[C@H](CCC(=O)O)NC(=O)C(C)(C)NC(=O)[C@@H](NC(=O)C(C)(C)N)C(C)C)C(=O)N[C@@H](CCC(N)=O)C(=O)N[C@@H](CC(C)C)C(=O)N[C@@H](CCSC)C(=O)N[C@@H](Cc1c[nH]cn1)C(=O)N[C@@H](CCC(N)=O)C(N)=O [[Aib^1,3,M]PTH(1-10), [Aib^1,3,Gln^10]PTH(1-10)] (H-[Aib]V[Aib]EIQLMHQ-NH2) | – | – | – | 16000 ± 2000 nM | – | 111 ± 8 | cAMP potency, fold more potent than [Ala^3,Gln^10]PTH(1-10) (human P1R): 50 fold; cAMP potency, fold weaker relative to [Aib^1,3,M]PTH(1-11) (human P1R): 4000 fold |
| H-AVSEIQLMHNLGKH-NH2 [PTH(1-14), reference compound] | no effect could be detected; also recorded: mineralization can be detected | – | – | – | – | – | EC50 ([2]; cAMP): N.R.; EC50 ([2]; cAMP, listed as native PTH(1-14)): no activity could be detected |
| CC[C@H](C)[C@H](NC(=O)[C@H](CCC(=O)O)NC(=O)[C@H](C)NC(=O)[C@@H](NC(=O)[C@H](C)N)C(C)C)C(=O)N[C@@H](CCC(N)=O)C(=O)N[C@@H](CC(C)C)C(=O)N[C@@H](CCSC)C(=O)N[C@@H](Cc1c[nH]cn1)C(=O)N[C@@H](CCC(N)=O)C(=O)N[C@@H](CCCCNC(=N)N)C(=O)N[C@@H](C)C(=O)N[C@@H](CCCCN)C(=O)N[C@@H](Cc1c[nH]c2ccccc12)C(N)=O [[M]PTH(1-14), [Ala^3,12,Gln^10,Har^11,Trp^14]PTH(1-14)amide, reference compound] (H-AVAEIQLMHQ[hArg]AKW-NH2) | – | – | 340 ± 30 | – | ~70 | 270 ± 8 | cAMP potency (EC50), fold less than that of PTH(1-34) (human P1R): 40 fold |
| CC[C@H](C)[C@H](NC(=O)[C@H](CCC(=O)O)NC(=O)C(C)(C)NC(=O)[C@@H](NC(=O)C(C)(C)N)C(C)C)C(=O)N[C@@H](CCC(N)=O)C(=O)N[C@@H](CC(C)C)C(=O)N[C@@H](CCSC)C(=O)N[C@@H](Cc1c[nH]cn1)C(=O)N[C@@H](CCC(N)=O)C(=O)N[C@@H](CCCCNC(=N)N)C(=O)N[C@@H](C)C(=O)N[C@@H](CCCCN)C(=O)N[C@@H](Cc1c[nH]c2ccccc12)C(N)=O [[Aib^1,3,M]PTH(1-14), AibValAibGluIleGlnLeuMetHisGlnHarAlaLysTrp] (H-[Aib]V[Aib]EIQLMHQ[hArg]AKW-NH2) | no mineralization was observed; also recorded: inhibited mineralization | inhibited expression of the collagen X gene | 320 ± 30 | 1.1 nM and ~1 nM | – | 278 ± 20 | fold more potent in stimulating cAMP formation than [M]PTH(1-14) [2]: 130 fold; fold less potent than PTH(1-34) ([2]; cAMP): 13 fold; fold more potent in stimulating cAMP formation than [M]PTH(1-14) (human P1R): 90 fold and 100 fold |
| CC[C@H](C)[C@H](NC(=O)[C@H](CCC(=O)O)NC(=O)C(C)(C)NC(=O)[C@@H](NC(=O)C(C)(C)N)C(C)C)C(=O)N[C@@H](CCC(N)=O)C(=O)N[C@@H](CC(C)C)C(=O)N[C@@H](CCSC)C(=O)N[C@@H](Cc1c[nH]cn1)C(=O)N[C@@H](CCC(N)=O)C(=O)N[C@@H](CCCCNC(=N)N)C(N)=O [[Aib^1,3,M]PTH(1-11), AibValAibGluIleGlnLeuMetHisGlnHar] (H-[Aib]V[Aib]EIQLMHQ[hArg]-NH2) | – | – | – | 4 nM and ~6 nM | – | 243 ± 15 | cAMP potency, fold greater than that of [M]PTH(1-11) (human P1R): 1,000 fold; cAMP potency, fold greater than that of [M]PTH(1-11) (human P1R; listed as [Aib^1,3,Gln^10,Har^11]PTH(1-11)): 1000 fold |
